Results taken from patent US20230146870A1, “METHOD TO QUANTIFY AFFINITY AND SELECTIVITY OF SMALL MOLECULES FOR PROTEINS IN LIVING CELLS” (Ohio State Innovation Foundation, priority 2021, published 2023).
“Also recorded” adds a separate entry of the source.

Key:
[1] = biological target: native (untagged) murine PKCγ (Mus musculus, UniProt P63318); assay: FPCBA competition with probe 1, native PKCγ in HEK293 cells; assay type: binding; set-up: For coexpression of full-length unmodified PKC proteins with mVenus as an independent marker; expressed in transfected cells; host or cells: HEK293 (transient, pIRES-mVenus); details: read-out: Cellular Ki for native PKCγ (95% confidence interval); probe 1 400 nM, BIM1 2 μM, 2 h at 37° C.
PKCγ = PKCγ (Homo sapiens, UniProt P05129); details: radiolabeled PDBu at 4° C.; read-out: Biochemical Ki, PKCγ; cited from earlier work
PKCε = PKCε (Homo sapiens, UniProt Q02156); details: radiolabeled PDBu at 4° C.; read-out: Biochemical Ki, PKCε; cited from earlier work
[2] = biological target: native (untagged) murine PKCα (Mus musculus, UniProt P20444); assay: FPCBA competition with probe 1, native PKCα in HEK293 cells; assay type: binding; set-up: For coexpression of full-length unmodified PKC proteins with mVenus as an independent marker; expressed in transfected cells; host or cells: HEK293 (transient, pIRES-mVenus); details: read-out: Cellular Ki for native PKCα (95% confidence interval); probe 1 400 nM, BIM1 2 μM, 2 h at 37° C.
PKCθ = PKCθ (Homo sapiens, UniProt Q04759); details: radiolabeled PDBu at 4° C.; read-out: Biochemical Ki, PKCθ; cited from earlier work
[3] = biological target: T1, native (untagged) murine PKCε (Mus musculus, UniProt P16054); assay: FPCBA competition with probe 1, native PKCε in HEK293 cells; assay type: binding; set-up: For coexpression of full-length unmodified PKC proteins with mVenus as an independent marker; expressed in transfected cells; host or cells: HEK293 (transient, pIRES-mVenus); details: read-out: Cellular Ki for native PKCε (95% confidence interval); probe 1 400 nM, BIM1 2 μM, 2 h at 37° C.
T1 sequence (P16054 1-737): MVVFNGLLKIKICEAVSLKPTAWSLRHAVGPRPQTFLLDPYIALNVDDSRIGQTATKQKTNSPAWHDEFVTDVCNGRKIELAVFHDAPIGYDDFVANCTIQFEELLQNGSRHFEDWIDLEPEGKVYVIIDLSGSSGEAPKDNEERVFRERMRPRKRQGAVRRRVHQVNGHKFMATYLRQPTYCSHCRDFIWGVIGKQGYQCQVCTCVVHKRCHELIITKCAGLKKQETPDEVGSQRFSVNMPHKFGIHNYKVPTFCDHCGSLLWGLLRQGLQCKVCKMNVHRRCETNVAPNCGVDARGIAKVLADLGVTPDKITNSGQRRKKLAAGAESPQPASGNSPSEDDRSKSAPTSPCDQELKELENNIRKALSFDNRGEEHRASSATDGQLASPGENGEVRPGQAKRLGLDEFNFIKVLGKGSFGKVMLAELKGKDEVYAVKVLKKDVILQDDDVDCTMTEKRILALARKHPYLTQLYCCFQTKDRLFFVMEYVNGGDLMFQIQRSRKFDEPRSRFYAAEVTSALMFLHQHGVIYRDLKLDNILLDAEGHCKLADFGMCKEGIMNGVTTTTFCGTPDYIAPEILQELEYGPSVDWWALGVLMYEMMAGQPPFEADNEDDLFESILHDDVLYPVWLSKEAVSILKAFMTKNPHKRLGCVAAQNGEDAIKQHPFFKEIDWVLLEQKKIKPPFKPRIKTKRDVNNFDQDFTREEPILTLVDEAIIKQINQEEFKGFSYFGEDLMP

murine PKCβI-mVenus = biological target: T2, murine PKCβI-mVenus (Mus musculus, UniProt P68404); assay: FPCBA saturation binding, HEK293 cells expressing PKCβI-mVenus (Example 3)
T2 construct: fused on or other part: mVenus at the C-terminus
Excerpt: To investigate the potential for quantitative analysis of binding to PKCs expressed in cells, we evaluated whether 1-3 could readily achieve equilibrium, which is necessary for measurements of cellular equilibrium dissociation constants (Kd).

[4] = biological target: T1, native (untagged) murine PKCε; assay: FPCBA saturation binding of probe 1, native PKCε (IRES-mVenus) in HEK293 cells
[5] = biological target: T3, native (untagged) murine PKCζ (Mus musculus, UniProt Q02956); assay: FPCBA saturation binding of probe 1, native PKCζ (IRES-mVenus) in HEK293 cells; details: BIM1 2 μM, 2 h at 37° C., 4% FBS
T3 sequence (Q02956 1-592): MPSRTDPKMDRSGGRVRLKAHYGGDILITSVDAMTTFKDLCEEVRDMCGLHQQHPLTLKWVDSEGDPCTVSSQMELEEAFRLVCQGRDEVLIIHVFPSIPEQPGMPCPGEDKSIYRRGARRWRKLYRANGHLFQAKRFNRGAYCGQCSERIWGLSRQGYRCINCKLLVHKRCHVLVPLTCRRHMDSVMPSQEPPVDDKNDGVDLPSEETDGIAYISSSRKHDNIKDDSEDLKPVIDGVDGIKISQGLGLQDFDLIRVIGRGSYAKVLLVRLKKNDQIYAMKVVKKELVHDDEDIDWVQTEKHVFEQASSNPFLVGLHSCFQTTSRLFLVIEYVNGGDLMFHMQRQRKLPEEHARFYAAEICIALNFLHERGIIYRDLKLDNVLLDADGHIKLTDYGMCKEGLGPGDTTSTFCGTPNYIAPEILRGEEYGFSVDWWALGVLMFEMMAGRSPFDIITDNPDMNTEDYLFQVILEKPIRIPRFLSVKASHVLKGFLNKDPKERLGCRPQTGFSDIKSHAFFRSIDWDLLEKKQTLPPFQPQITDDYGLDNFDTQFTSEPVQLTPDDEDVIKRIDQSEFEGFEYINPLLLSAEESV

T2 sequence (P68404 2-621 limits assumed): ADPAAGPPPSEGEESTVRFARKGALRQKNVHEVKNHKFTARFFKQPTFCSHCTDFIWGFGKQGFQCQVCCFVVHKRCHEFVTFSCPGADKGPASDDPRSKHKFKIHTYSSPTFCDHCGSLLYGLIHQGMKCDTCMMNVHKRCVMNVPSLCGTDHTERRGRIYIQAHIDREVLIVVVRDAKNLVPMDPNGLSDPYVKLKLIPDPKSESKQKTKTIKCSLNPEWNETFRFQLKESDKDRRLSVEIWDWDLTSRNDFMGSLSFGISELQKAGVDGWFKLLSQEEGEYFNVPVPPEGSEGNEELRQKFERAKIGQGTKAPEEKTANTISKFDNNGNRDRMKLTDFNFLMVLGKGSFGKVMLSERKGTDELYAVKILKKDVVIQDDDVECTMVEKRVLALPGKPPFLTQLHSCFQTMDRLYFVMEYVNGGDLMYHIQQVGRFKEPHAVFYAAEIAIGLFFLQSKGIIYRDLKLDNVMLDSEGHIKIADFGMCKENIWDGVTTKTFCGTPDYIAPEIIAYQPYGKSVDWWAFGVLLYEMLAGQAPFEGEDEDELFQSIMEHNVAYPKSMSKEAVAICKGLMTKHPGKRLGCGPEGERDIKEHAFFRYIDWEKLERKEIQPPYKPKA
Chain of PKCθ (Q04759 whole entry): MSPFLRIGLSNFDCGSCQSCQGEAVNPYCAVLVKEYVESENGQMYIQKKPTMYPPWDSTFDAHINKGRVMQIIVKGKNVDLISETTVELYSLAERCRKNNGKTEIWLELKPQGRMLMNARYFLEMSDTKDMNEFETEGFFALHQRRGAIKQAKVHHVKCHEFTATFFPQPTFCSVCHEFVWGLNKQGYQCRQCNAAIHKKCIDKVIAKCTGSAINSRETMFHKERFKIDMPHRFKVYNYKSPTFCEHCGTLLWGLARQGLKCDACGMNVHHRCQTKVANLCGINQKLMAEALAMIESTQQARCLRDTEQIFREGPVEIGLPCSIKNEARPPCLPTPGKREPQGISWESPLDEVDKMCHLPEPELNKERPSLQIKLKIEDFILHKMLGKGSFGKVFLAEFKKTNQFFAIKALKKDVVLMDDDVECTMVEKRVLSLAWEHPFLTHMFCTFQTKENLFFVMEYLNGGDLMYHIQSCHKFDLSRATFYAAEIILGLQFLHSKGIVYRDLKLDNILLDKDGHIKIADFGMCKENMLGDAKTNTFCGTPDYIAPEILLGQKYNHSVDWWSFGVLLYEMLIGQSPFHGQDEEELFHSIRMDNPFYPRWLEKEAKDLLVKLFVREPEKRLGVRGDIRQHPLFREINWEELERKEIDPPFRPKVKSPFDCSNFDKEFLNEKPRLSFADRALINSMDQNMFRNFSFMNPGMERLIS
Chain of PKCε (Q02156 whole entry): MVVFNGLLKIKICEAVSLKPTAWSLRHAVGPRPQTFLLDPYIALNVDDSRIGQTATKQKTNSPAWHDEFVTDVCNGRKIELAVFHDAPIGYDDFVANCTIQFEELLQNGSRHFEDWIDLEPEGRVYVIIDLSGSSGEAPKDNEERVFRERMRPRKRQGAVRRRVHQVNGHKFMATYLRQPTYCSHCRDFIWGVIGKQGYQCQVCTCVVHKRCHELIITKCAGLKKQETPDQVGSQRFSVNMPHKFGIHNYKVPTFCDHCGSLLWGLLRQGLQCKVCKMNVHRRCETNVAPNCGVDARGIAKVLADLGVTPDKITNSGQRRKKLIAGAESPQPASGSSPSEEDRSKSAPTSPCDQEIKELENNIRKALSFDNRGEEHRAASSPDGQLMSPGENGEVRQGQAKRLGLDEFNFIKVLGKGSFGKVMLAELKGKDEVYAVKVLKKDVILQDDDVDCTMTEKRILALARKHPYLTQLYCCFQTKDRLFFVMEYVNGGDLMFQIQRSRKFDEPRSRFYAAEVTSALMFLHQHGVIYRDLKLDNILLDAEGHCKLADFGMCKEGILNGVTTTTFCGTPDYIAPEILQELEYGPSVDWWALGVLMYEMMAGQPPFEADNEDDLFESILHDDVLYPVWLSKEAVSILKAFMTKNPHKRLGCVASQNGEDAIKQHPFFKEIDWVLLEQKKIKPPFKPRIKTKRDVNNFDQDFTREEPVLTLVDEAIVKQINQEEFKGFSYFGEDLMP

Row | SMILES | Ki [1] [nM] | Ki (PKCγ) [nM] | Ki (PKCε) [nM] | Ki [2] [nM] | Ki (PKCθ) [nM] | Ki [3] [nM] | median blue fluorescence of cells expressing high levels of PKCβI-mVenus vs non-transfected cells (murine PKCβI-mVenus; 1 at 1 μM, 2 h, BIM1 2 μM) | Kd (murine PKCβI-mVenus; BIM1 2 μM, 2 h at 37° C., 4% FBS, read-out: Cellular Kd for probe, PKCβI-mVenus) [nM] | signal-to-background (S/B) (murine PKCβI-mVenus; with BIM1, 1.25 μM probe) | improvement of apparent cellular affinity for PKCβI by BIM1 (murine PKCβI-mVenus; with vs without BIM1) [fold] | Kd [4] [nM] | Cellular Kd for probe, native PKCζ [5]
1 | CCC/C=C/C=C/C(=O)O[C@H]1/C(=C/C(=O)OC)C[C@H]2C[C@H]([C@@H](C)O)OC(=O)C[C@H](O)C[C@@H]3C[C@H](OC(C)=O)C(C)(C)[C@](O)(C[C@@H]4C/C(=C/C(=O)OC)C[C@H](/C=C/C(C)(C)[C@]1(O)O2)O4)O3 [bryostatin 1] | 8 | 2.2 | 3 | 3 | 1.5 | 16 |  |  |  |  |  | 
2 | CCCCCCN(CCCCCCCCCCCCNC(=O)c1cc2cc(F)c(O)c(F)c2oc1=O)C(=O)O[C@@]12[C@H](O)[C@@H](C)[C@@]3(O)[C@@H](C=C(CO)C[C@]4(O)C(=O)C(C)=C[C@@H]34)[C@@H]1C2(C)C [probe 1, (1aR,1bS,4aR,7aS,7bS,8R,9R,9aS)-4a,7b,9-trihydroxy-3-(hydroxymethyl)-1,1,6,8-tetramethyl-5-oxo-1,1a,1b,4,4a,5,7a,7b,8,9-decahydro-9aH-cyclopropa[3,4]benzo[1,2-e]azulen-9a-yl (12-(6,8-difluoro-7-hydroxy-2-oxo-2H-chromene-3-carboxamido)dodecyl)(hexyl)carbamate] |  |  |  |  |  |  | ca. 4 fold | 200 | 2.9 | ~2 | 568 ± 141 | did not bind; also recorded: No binding
